Assay results reported in paper PMC9271792 (Frontiers in Endocrinology, 2022).
Entries after “also recorded” stand apart in the source; their conditions may differ.

Assays:
NIH3T3-L1 adipocytes = experiment: Glucose uptake assay (2-deoxyglucose); type: cell-based; details: paired T-test; n = at least 3
Experimental: NIH3T3-L1 myoblasts (up to passage 20) grown in DMEM supplemented with 10% newborn calf serum, 2mM L-glutamine, 100 U/l penicillin, 100 µg/L streptomycin at 37°C were seeded into 24-well plates at 5 x 10^3 cells/well and grown for 8 days to confluence. They were then differentiated into adipocytes as described in Govers et al. ([51]). After differentiation the NIH3T3-L1 cells express 37,000 IGF-1R and 250,000 IR per cell ([52]). […] Briefly, 3T3-L1 adipocytes were serum starved in SFM/1% BSA for 4 h, washed twice with Krebs-Ringer phosphate buffer (KRP; 12.5mM HEPES, 120mM NaCl, 6mM KCl, 1.2mM MgSO4, 1mM CaCl2, 0.4mM Na2HPO4, 0.6mM Na2HPO4 (pH7.4)) containing 1% BSA and incubated for 15min at 37°C. […] For the final 10 min 2-deoxyglucose (DOG) uptake was initiated by the addition of 50 µM cold deoxyglucose and 1 µCi ^3H –deoxyglucose per well. The assay was terminated by rapidly washing the cells three times with ice-cold KRP buffer. Cells were solubilized in 0.5 M NaOH/0.1% SDS and ^3H content was determined by scintillation counting. Nonspecific 2-DOG uptake was determined in the presence of 50μM cytochalasin B. Assays were performed in triplicate in at least three independent experiments.

IR-A = IR-A receptor internalization; type: cell-based, human; details: 10 nM, 2 hours post-stimulation
Experimental: (§1) All data are the mean ± S.E.M. n = at least 3 independent experiments. Error bars are shown when greater than the size of the symbols.
(§2) Assays were performed in triplicate in at least three independent experiments.

IGF-1R [1] = molecular target: T1, IGF-1R (Homo sapiens, UniProt P08069); details: cis dicarba insulin, footnote b; ref [9]; cited from earlier work
T1 construct: expressed in transfected cells; host or cells: P6 cells (BALB/c3T3 mouse fibroblasts overexpressing human IGF-1R); Triton X-100 lysate captured on anti-IGF-1R antibody 24-31

[2] = system: ERK 1 / ERK 2 / p90RSK phosphorylation in L6 IR-A cells; experiment: Western blot dose-response, MAPK pathway (ERK1, ERK2, p90RSK), L6 IR-A; type: cell-based, rat cells; human IR-A
Experimental: (§5) R/^-IR-B (80,000 cells/well) or L6 IR-A cells (240,000 cells/well) were seeded in 6-well plates and allowed to grow to confluence (~ 48 hours). Prior to stimulation, cells were serum starved in SFM/1% BSA for 4 h. […] Lysates were scraped from the well, spun at 13,000 rpm for 3 min at 0°C to remove cell debris and stored at -80°C. Lysate protein concentrations were quantified using Bio-Rad DC™ Protein Assay and 20μg of each sample was separated in 10% glycine gels under reducing conditions. Transferred blots were blocked for 1 h at room temperature in TBST containing 3% BSA and probed with primary antibodies (Pathscan Antibody, pAkt(Thr308), pGSK(Ser9), pAS160(Thr642)) in blocking solution (TBST containing 3% BSA) overnight at 4°C. All blots were also probed with anti-β-tubulin as a loading control. Blots were washed six times for 5 min each in TBST then probed with either HRP-conjugated (dose-response) or fluorophore-conjugated (time-course) secondary antibodies for 1 hour at room temperature. The washing was then repeated.
(§6) Dose response blots were developed in ECL reagent according to manufacturer’s instruction and imaged in Fujiflim LAS-4000 Luminescent Image Analyzer. […] All blots were performed at least three times. All data were analysed with LI-COR Image Studio™ software and each band intensity was normalized to tubulin of its respective lane.

IR [3] = details: KIRA; compared to insulin; ref [9]; cited from earlier work
Text: This is similar to the poorly mitogenic S597 peptide, which also promoted slowe ...

IRS-1 in L6 IR-A cells = experiment: IRS-1 activation time-course (immunoprecipitation, pTyr20); type: cell-based, rat cells; human IR-A; details: 10 nM
Experimental: (§3) Figure 6 Cis-dicarba analogues are incapable of promoting IR-A internalization due to inability to promote phosphorylation of IR-A, IRS-1 and Shc. […] Data are presented as % of surface receptor/total receptor followed by normalisation with % of surface receptor in SFM at t = 0; i.e. SFM at t = 0 is equivalent to 100%. […] All data are the mean ± S.E.M. n = at least 3 independent experiments. Error bars are shown when greater than the size of the symbols. Statistical significance were determined via one-way repeated measures ANOVA followed by Dunnets multiple test.
Activated IRS-1 was determined using immunoprecipitation. Anti-IRS-1 antibody(4ug) was pre incubated with protein G agarose overnight at 4°C before adding to lysates to immunoprecipitate IRS-1 overnight at 4°C. Complexes were washed three times in PBS, boiled under reducing conditions and samples separated on 10% glycine gels. Transferred blots were blocked for 1 h at room temperature in TBST containing 3% BSA and probed with primary antibodies (anti-IRS-1 for total IRS-1 protein, or anti pTyr20 for total phosphorylated protein in immunoprecipitation) in blocking solution (TBST containing 3% BSA) overnight at 4°C. Blots were washed six times for 5 min each in TBST then probed with fluorophore-conjugated secondary antibodies (donkey anti-mouse 680RD and anti- rabbit 800CW) for 1 hour at room temperature. […]

[4] = system: ERK 1 / ERK 2 / p90RSK phosphorylation in R^-IR-B cells; experiment: Western blot dose-response, MAPK pathway, R-IR-B fibroblasts; type: cell-based, mouse cells; human IR-B; details: 0.1–100 nM, 10 min, 2-way ANOVA
Experimental: (§7) R/^-IR-B (80,000 cells/well) or L6 IR-A cells (240,000 cells/well) were seeded in 6-well plates and allowed to grow to confluence (~ 48 hours). Prior to stimulation, cells were serum starved in SFM/1% BSA for 4 h. […] Lysates were scraped from the well, spun at 13,000 rpm for 3 min at 0°C to remove cell debris and stored at -80°C. Lysate protein concentrations were quantified using Bio-Rad DC™ Protein Assay and 20μg of each sample was separated in 10% glycine gels under reducing conditions. Transferred blots were blocked for 1 h at room temperature in TBST containing 3% BSA and probed with primary antibodies (Pathscan Antibody, pAkt(Thr308), pGSK(Ser9), pAS160(Thr642)) in blocking solution (TBST containing 3% BSA) overnight at 4°C. […]
(§8) Phosphorylation levels are expressed as percentage of level detected […]
(§9) were determined via 2-way ANOVA (bars above graph); difference comparing each stimulating concentration (pink asterisks) were further analyzed using Holm-Sidak test. ns: non-significant; * (P ≤ 0.05), ** (P ≤ 0.01); *** (P ≤ 0.001); **** (P ≤ 0.0001).

[5] = system: L6 rat skeletal myoblasts overexpressing human IR-A (L6 IR-A cells); experiment: DNA synthesis assay (EdU incorporation); type: cell-based; details: 18 h, 0.01 - 300 nM, compared to native insulin
Experimental: as §2

[6] = system: Akt / GSK-3β / S6 phosphorylation in L6 IR-A cells; experiment: Western blot time-course, PI3K/Akt pathway, L6 IR-A; type: cell-based, rat cells; human IR-A; details: 10 nM, 0–30 min, p-Akt Ser473, p-Akt Thr308, p-GSK3β, p-S6
Experimental: as §5
(§10) Dose response blots were developed in ECL reagent according to manufacturer’s instruction and imaged in Fujiflim LAS-4000 Luminescent Image Analyzer. Time course blots were imaged with an Odyssey® CLx Imaging System. All blots were performed at least three times. All data were analysed with LI-COR Image Studio™ software and each band intensity was normalized to tubulin of its respective lane.

[7] = system: p52 Shc (phospho-Tyr239/Tyr240) in L6 IR-A cells; experiment: p52 Shc phosphorylation time-course (western blot); type: cell-based, rat cells; human IR-A; details: 10 nM
Experimental: as §3
R/^-IR-B (80,000 cells/well) or L6 IR-A cells (240,000 cells/well) were seeded in 6-well plates and allowed to grow to confluence (~ 48 hours). Prior to stimulation, cells were serum starved in SFM/1% BSA for 4 h. […] Lysates were scraped from the well, spun at 13,000 rpm for 3 min at 0°C to remove cell debris and stored at -80°C. Lysate protein concentrations were quantified using Bio-Rad DC™ Protein Assay and 20μg of each sample was separated in 10% glycine gels under reducing conditions. […]
Dose response blots were developed in ECL reagent according to manufacturer’s instruction and imaged in Fujiflim LAS-4000 Luminescent Image Analyzer. […] All data were analysed with LI-COR Image Studio™ software and each band intensity was normalized to tubulin of its respective lane.

mitogenic signalling = details: ref [9], [30]; cited from earlier work
IGF-1R [8] = molecular target: T1, IGF-1R; details: ref [9]; cited from earlier work
Text: (§4) This contrasts with cis-dicarba insulin which wa ...

IR-B = details: ref [9]; cited from earlier work
Text: as §4

[9] = system: Akt / GSK-3β / S6 / AS160 phosphorylation in L6 IR-A cells; experiment: Western blot dose-response, PI3K/Akt pathway (Akt, GSK-3β, S6, AS160), L6 IR-A; type: cell-based, rat cells; human IR-A
Experimental: as §5, §6

C57BL6 male mice = experiment: Insulin tolerance test; type: in vivo, mouse; details: 0.75 IU/kg ip
[10] = molecular target: T2, IR-A (phospho-Tyr1150/Tyr1151) (Homo sapiens, UniProt P06213); experiment: IR-A phosphorylation Tyr1150/Tyr1151 time-course (western blot); type: cell-based; details: L6 IR-A, 10 nM, 0–10 min
T2 construct: expressed in transfected cells; host or cells: L6 rat skeletal myoblasts over-expressing human IR-A (hIR-A L6), from Novo Nordisk
Text: as §1

[11] = system: ERK 1/2 / p90RSK phosphorylation in L6 IR-A cells; experiment: Western blot time-course, MAPK pathway, L6 IR-A; type: cell-based, rat cells; human IR-A; details: 10 nM, 0–30 min
Experimental: as §5, §10

metabolic activity = details: ref [9], [30]; cited from earlier work
[12] = system: Akt / GSK-3β / S6 / AS160 phosphorylation in R^-IR-B cells; experiment: Western blot dose-response, PI3K/Akt pathway, R-IR-B fibroblasts; type: cell-based, mouse cells; human IR-B; details: 10 min, significant difference only at 0.1 nM (p* ≤ 0.05 to p** ≤ 0.01)
Experimental: as §7, §8, §9

IR [13] = details: ref [9], [30]; cited from earlier work
IR isoform B (IR-B) = molecular target: T3, IR isoform B (IR-B) (Homo sapiens, UniProt P06213); details: cis dicarba insulin, footnote b, ref [9], cited from earlier work
T3 construct: expressed in transfected cells; host or cells: R-IR-B cells (IGF-1R knockout mouse embryonic fibroblasts over-expressing human IR-B); Triton X-100 lysate captured on anti-IR antibody 83-7

[14] = dose-response, compared to insulin

cis-[Δ^4A6,11]-dicarba human insulin [cis dicarba insulin]
glucose uptake, significance of difference between insulin, cis-dicarba insulin and cis-dicarba glargine (NIH3T3-L1 adipocytes): ns | IR-A internalization (in words) (IR-A): significantly impaired ability to promote IR-A internalization, with virtually all receptor remaining on the surface 2 hours post-stimulation; also recorded: ineffective in promoting IR internalisation | Affinity (% Insulin ± SEM), IGF-1R (IGF-1R [1]): ~100 % Insulin | IC50 (IGF-1R [1]): > 300 nM | phosphorylation of ERK 1, ERK 2 and p90RSK (in words) ([2]; 0.1–10 nM, t = 10 min, p* ≤ 0.05 to p**** ≤ 0.0001 vs parent): significantly reduced phosphorylation levels of ERK 1, ERK 2 and p90RSK | p-p90RSK (S380), overall significance vs parent ([2]; L6 IR-A, 0.1–100 nM, 10 min, 2-way ANOVA): * (P ≤ 0.05) | MAPK pathway activation (in words) [2, 14]: significantly less effective than insulin or glargine, respectively, in activating the MAPK pathway; also recorded: significantly less potent at activating the MAPK pathway | total receptor phosphorylation in kinase receptor activation assay (in words) (IR [3]): almost as potent as insulin in a kinase receptor activation assay | IRS-1 activation (in words) (IRS-1 in L6 IR-A cells): significantly less potent in activating both IRS-1 and Shc | IRS-1 activation relative to insulin (IRS-1 in L6 IR-A cells; 0–10 min, compared to insulin): ~ 30% | p-Erk 1 (T202/Y204), overall significance vs parent [4]: * (P ≤ 0.05) | DNA synthesis, fold reduction in mitogenic potency vs native insulin [5]: ~ 5 fold | kinetics of activation of the PI3K/Akt pathway (in words) [6]: essentially the same | Shc activation (in words) [7]: significantly less potent in activating both IRS-1 and Shc | Shc activation relative to insulin ([7]; 0–10 min, compared to insulin): ~ 30% | mitogenic response (in words) (mitogenic signalling): poor at activating a mitogenic response | binding and activation of IGF-1R (in words) (IGF-1R [8]): equipotent to insulin in both binding and activation of IR-B and IGF-1R | binding and activation of IR-B (in words) (IR-B): equipotent to insulin in both binding and activation of IR-B and IGF-1R | Akt phosphorylation at Ser473 (in words) ([9]; L6 IR-A, 10 min, significant difference only at 0.1 nM (p* ≤ 0.05 to p** ≤ 0.01)): generally similar to their parent peptides | PI3K/Akt pathway activation (in words) [9, 14]: equal potency in activating the PI3K/Akt pathway | blood glucose lowering (in words) (C57BL6 male mice; chow fed mice, non-fasting, 2 hours post-treatment): no statistical difference | blood glucose change, significance vs parent (AUC) (C57BL6 male mice; insulin vs cis-dicarba insulin, glargine vs cis-dicarba glargine, paired T-test, n = 5-6 per group): ns | IR-A Tyr1150/Tyr1151 phosphorylation (in words) [10]: much slower to stimulate receptor activation; also recorded: reduced kinetics of activation compared to insulin | IR-A Tyr1150/Tyr1151 phosphorylation, response relative to insulin ([10]; % of that of insulin): ~ 20% | MAPK signalling activation, ERK1/2 and p90RSK (in words) ([11]; compared to parent): lower level of activation of MAPK signalling | ERK 1/2 phosphorylation maximal level (in words) ([11]; compared to parent peptides): never achieved the maximal level attained through stimulation by their corresponding parent peptides | metabolic activity (in words) (metabolic activity): promotes equivalent metabolic activity | Akt phosphorylation at Ser473 (in words) [12]: generally similar to their parent peptides | IR binding (in words) (IR [13]): binds the IR with equal affinity to insulin | Affinity (% Insulin ± SEM), IR-B (IR isoform B (IR-B); non-statistically significant): 100 % Insulin | IC50 (IR isoform B (IR-B)): 1.07 ± 0.3 nM
